In patent publication US10220008B2, “Treatment and prevention of stroke and other neurological disorders” (STC.UNM, priority 2013, dated 2019):
Entries after “also recorded” stand apart in the source; their conditions may differ. Structures can show the parent of a compound that is named as a salt.

Legend:
[1] = system: primary cortical neurons; assay: Secondary screening: TUNEL apoptosis assay after 2 hours OGD, compounds given at or after reoxygenation; assay type: cell-based, Spraque-Dawley rat; conditions: for dose providing maximum neuroprotection against OGD-induced apoptosis (optimal dose): at reoxygenation after 2 hours OGD; for neuroprotection when administered after reoxygenation onset (time course): optimal dose given 0, 15, 30, 60 minutes after reoxygenation onset after 2 hours OGD
Experimental: Cortical neurons were obtained from Spraque-Dawley rat embryos at day 18 of gestation. Cortices were triturated and pre-plated 4 times for 30 minutes in 150 mm vacuum-plasma treated dishes (BD). During these pre-plating steps, primarily non-neuronal cells adhere to the dish, thereby enriching the neuronal population. Enriched neurons were plated in Neurobasal medium containing 2% fetal bovine serum (FBS), 25 μM Glutamax, and penicillin-streptomycin (Gibco) in poly-D-lysine-coated white clear-bottomed 96-well plates or 24-well plates (Becton-Dickinson) at a density of 50×10^3/cm^2. Twenty-four hours later (1 day in vitro, 1 DIV), 50% of the medium was replaced with Neurobasal medium, 2% B27 (Gibco), and 4 μM cytosine arabinoside (AraC) (2 μM AraC final). At 5 DIV, 50% of the medium was replaced with Neurobasal, 2% B27. At 7 DIV, cortical cultures were 98% neurons as assessed by microtubule-associated protein 2 (MAP2) antibody labeling and flow cytometry analysis (data not shown). In vitro experiments were performed in quadruplicate and results are shown as means with standard deviation.
Neuroprotection by candidate compounds was assayed by measurement of apoptosis using terminal deoxynucleotidyl transferase dUTP nick end labeling (TUNEL) reagents as described previously.^6 At 7 DIV, primary neurons grown on poly-D-lysine-coated 22 mm-diameter cover slips in 24-well plates underwent 2 hours of OGD and were treated with a range of doses of each compound at reoxygenation. Compounds providing greater than 2-fold protection over vehicle were then administered at the optimal dose after OGD at intervals of 0, 15, 30, and 60 minutes post-reoxygenation.

[2] = system: primary cortical neurons; assay: High-throughput oxygen-glucose deprivation (OGD) screen of the Prestwick Chemical Library, CytotoxGlo dead/live cell protease ratio; assay type: cell-based, Spraque-Dawley rat; conditions: pretreatment, 10 μM, pure cortical neurons
Experimental: The Prestwick Chemical Library (Prestwick Chemical) was screened for neuroprotection in OGD by pre-treating 7 DIV cortical neurons in 96-well dishes with 10 μM compounds for 30 minutes. All liquid handling was automated and performed by a Beckman Coulter Biomek NX multichannel pipettor. The pretreatment medium was transferred to a clean plate for storage and was kept at 37° C. in a 5% CO2 environment during the OGD exposure. After pretreatment, cells were washed 3 times with deoxygenated glucose-free Hank's buffered saline solution (HBSS), pH 7.4, to remove glucose and oxygen and were covered with 100 μl HBSS. HBSS was deoxygenated in a gas washing bottle with 60 liters of 95% nitrogen, 5% CO2 per 250 ml HBSS. HBSS was maintained at 37° C. during deoxygenation in a water bath. Compounds were added to wells and plates were sealed with sealing tape and placed in a 37° C. incubator for 2 hours (OGD). After 2 hours, HBSS was removed and pretreatment medium was returned to the wells. After 24 hours, neuronal death was quantified using CytotoxGlo reagents (Promega) and a Victor^3 V luminometer (Perkin Elmer) according to the manufacturer's instructions. Eight wells per dish were used as DMSO-treated vehicle-only controls. […]

[3] = system: spontaneously hypertensive rats (SHR); assay: Middle cerebral artery occlusion (MCAO) model of transient focal ischemia; assay type: in vivo, rat
Excerpt: All animal procedures were approved by the University of New Mexico Institutional Animal Care and Use Committee and were in compliance with federal guidelines. Male spontaneously hypertensive rats (SHR) weighing 290-300 g were obtained from Charles River Laboratories. Animals were anesthetized with 2% isoflurane inhalant during all surgical procedures. The right common carotid artery (CCA) was ligated approximately 6 mm caudal to the bifurcation of the external and internal carotid arteries. With a vascular clamp in place on the CCA immediately caudal to the bifurcation, an incision was made in the CCA 5 mm caudal to the clamp and a nylon suture (Doccol Corporation) 30 mm in length with a 2-3 mm silicone coated tip (0.39 mm diameter) was advanced into the CCA lumen and secured in place with 2 4-0 silk sutures spaced 3 mm apart and tied loosely around the CCA caudal to the clamp. The clamp was removed and the suture advanced into the internal carotid artery until resistance was felt. In this position, the filament occludes the MCA origin and MCA territory becomes ischemic. The suture was secured with the 2 silk sutures around the CCA. […] Edema-corrected infarct volume was calculated by subtracting the area of non-infarcted tissue in the ipsilateral hemisphere from the total volume of the contralateral hemisphere. Infarct volume was quantified using Image J software.

Structure (SMILES)	neuroprotection when administered after reoxygenation onset (time course) [1]	neuroprotection in the high-throughput screen (in words) [2]	dose providing maximum neuroprotection against OGD-induced apoptosis (optimal dose) ([1]; 0.01 to 100 nM tested)	also measured
NC(=O)OCC(O)COc1ccc(Cl)cc1 (centres unmarked) [Chlorphenesin carbamate]	no decrease in neuroprotection; also recorded: no loss of neuroprotection	–	–	dose providing maximum neuroprotection against OGD-induced apoptosis (optimal dose) ([1]; 100 to 300 μM tested): 200000 nM
CN1CCN2c3ccccc3Cc3ccccc3C2C1 (centres unmarked) [Mianserine hydrochloride]	–	highly protective	–	neuroprotection in the secondary screen (in words) ([1]; given at reoxygenation): ineffective
CCNCC(O)c1cccc(O)c1 (centres unmarked) [Etilefrine hydrochloride]	–	–	1 nM	neuroprotection when administered after reoxygenation onset (time course) ([1]; listed as etilifrine, hydrochloride): significantly decreased; also recorded: significant decrease in neuroprotection
CC(C)(C)NCC(O)c1cc(Cl)c(N)c(Cl)c1 (centres unmarked) [clenbuterol]	–	not identified as a neuroprotective compound	–	–
C[C@H](COc1ccccc1)N[C@H](C)[C@H](O)c1ccc(O)cc1 (racemic) [Isoxsuprine hydrochloride, 4-{1-hydroxy-2-[(1-methyl-2-phenoxyethyl)amino]propyl}phenol]	no loss of efficacy; also recorded: no decrease in neuroprotection; also recorded: no loss of neuroprotection	–	1 nM	total edema-corrected infarct volume ([3]; 1 mg/kg IV at onset of reperfusion after 90-minute MCAO, 24 hours reperfusion, vehicle 279±25, n=7): 137±18 mm^3; reduction of infarct volume versus vehicle ([3]; single dose 1 mg/kg IV at reperfusion): reduced infarct volume by half
